Measured values taken from US20260035338A1, “AMINO LIPID COMPOUND AND LIPID NANOPARTICLE FOR DELIVERING BIOACTIVE INGREDIENT” (SHENZHEN SHENXIN BIOTECHNOLOGY CO., LTD., priority 2022, published 2026).

Test system: BALB/c mice
Assay: In vivo delivery of Fluc mRNA-encapsulating LNP formulations, luciferase signal by In Vivo Imaging System (IVIS)
Settings: tail vein injection (IV) 70 μL, female BALB/c mice, 6 hours after injection; for Average number of photons (Total in-vivo flux): LNP formulation encapsulating Fluc mRNA (Lipid:DSPC:CHO-HP:M-DMG-2000 48:10:40.5:1.5); for Average number of photons (Liver) / Average number of photons (Spleen): LNP formulation encapsulating Fluc mRNA
Protocol: Animal preparation: Female BALB/c mice of 6-8 weeks old were selected and raised in an SPF grade breeding room. Animal testing was conducted in strict accordance with the guidelines of national health institutions and animal ethics requirements.
In vivo Delivery: prior to injection of the test LNP formulation, the LNP formulation was gently and repeatedly inverted to thoroughly mix the sample of the formulation. A corresponding amount of the LNP formulation was aspirated with a 1 ml insulin syringe, and the LNP formulation was injected by tail vein injection (IV), with 3 mice in duplicate per formulation. Each mouse was injected with 70 μL of the corresponding LNP formulation encapsulating the luciferase mRNA (Fluc mRNA) prepared in Experimental Example 1.
6 hours after injection of LNP formulations, mice were injected with 200 μL D-Luciferin luciferase developing substrate (Catalog No. 122799; Manufacturer: Perkin Elmer). After the substrate was injected, the mice were anesthetized with isoflurane inhalation, and the injection time of luciferase developing substrate was recorded.
The encapsulation efficiency of the lipid nanoparticle encapsulating luciferase mRNA (Fluc mRNA) with a representative amino lipid compound and the fluorescence expression intensity induced by the same are shown in Table 4, with the LNP formulation containing SM-102, 1001 or ALC-0315 as a control LNP formulation. The preparation method of the control LNP formulation was basically the same as that of the LNP formulations in Experimental Example 1, with the difference lying in that the amino lipid compounds of the present disclosure were replaced with SM-102, 1001 or ALC-0315 in the preparation of the control LNP formulation.

SMILES | Average number of photons (Total in-vivo flux) | Average number of photons (Liver) | Average number of photons (Spleen)
CCCCCCCCC(=O)OCCCCCCCCOC(=O)CCCCCCCCC(CCCCCCCCC(=O)OCCCC(OCCCCCC)OCCCCCC)OC(=O)OCCCN(CC)CC (stereo not drawn) [compound 433] | 2.56E+07 | 3.83E+06 | 2.44E+05
CCCCCCCCC(CCCCCCCC)OC(=O)CCCCCCCOC(=O)CCCCCCCCC(CCCCCCCCC(=O)OCCCC(OCCCCCC)OCCCCCC)OC(=O)OCCCN(CC)CC (stereo not drawn) [compound 434] | 2.50E+07 | 3.52E+06 | 1.40E+05
CCCCCCOC(CCCOC(=O)CCCCCCCCC(CCCCCCCCC(=O)OCCCCCCCC(=O)OCC)OC(=O)OCCCN(CC)CC)OCCCCCC (stereo not drawn) [compound 436] | 2.50E+07 | 6.68E+06 | 5.08E+05
CCCCCCC#CCCOC(=O)CCCCCCCOC(=O)CCCCCCCCC(CCCCCCCCC(=O)OCCCC(OCCCCCC)OCCCCCC)OC(=O)OCCCN(CC)CC (stereo not drawn) [compound 437] | 1.66E+07 | 2.66E+06 | 2.62E+06
CCC/C=C\COC(=O)CCCOC(=O)CCCCCCCCC(CCCCCCCCC(=O)OCCCC(OC/C=C\CCC)OC/C=C\CCC)OC(=O)OCCCN(CC)CC (stereo not drawn) [compound 438] | 5.78E+07 | 8.47E+06 | 1.07E+06
CCCCCCCC#CCOC(CCCOC(=O)CCCCCCCCC(CCCCCCCCC(=O)OCCCCCCCCCCOC)OC(=O)OCCCN(CC)CC)OCC#CCCCCCCC (stereo not drawn) [compound 439] | 5.87E+07 | 1.25E+07 | 1.96E+06
CCCCCCOCCCCOC(=O)CCCCCCCCC(CCCCCCCCC(=O)OCCCC(OCCCCCC)OCCCCCC)OC(=O)OCCCN(CC)CC (stereo not drawn) [compound 440] | 2.30E+08 | 3.22E+07 | 2.14E+06
CCCCCCCCC(=O)OCCCCCCCCOC(=O)CCCCCCCCC(CCCCCCCCC(=O)OCCCC(OCCCCCC)OCCCCCC)OC(=O)OCCCN(CC)CC (stereo not drawn) [compound 441] | 3.09E+07 | 5.62E+06 | 5.52E+05
CCCCCCCCOCCCC(=O)N(CCCN(C)C)C(CCCCCCCCC(=O)OCCCC(OCCCCCC)OCCCCCC)CCCCCCCCC(=O)OCCCC(OCCCCCC)OCCCCCC [compound 449] | 1.65E+08 | 2.94E+07 | 7.31E+06
CCCCCCOC(CCCOC(=O)CCCCCCCCC(CCCCCCCCC(=O)OCCCC(OCCCCCC)OCCCCCC)N(CCCN(C)C)C(=O)COC)OCCCCCC [compound 450] | 4.38E+07 | 7.96E+05 | 3.18E+06
CCCCCCOC(CCCOC(=O)CCCCCCCCC(CCCCCCCCC(=O)OCCCC(OCCCCCC)OCCCCCC)N(CCCN(C)C)C(C)=O)OCCCCCC [compound 451] | 2.86E+07 | 4.63E+06 | 1.74E+07
CCCCCCOC(CCCOC(=O)CCCCCCCCC(CCCCCCCCC(=O)OCCCC(OCCCCCC)OCCCCCC)N(CCCN(C)C)C(=O)CCC)OCCCCCC [compound 452] | 3.27E+08 | 4.94E+07 | 2.22E+07
CCCCCCOC(CCCOC(=O)OCCCCCCCCCC(CCCCCCCCCOC(=O)OCC(OCCCCCC)OCCCCCC)OC(=O)OCCCN(CC)CC)OCCCCCC (stereo not drawn) [compound 457] | 1.43E+07 | 1.55E+06 | 2.70E+06
CCCCCCCCOC(CCCOC(=O)CCCCCCCCC(CCCCCCCCCNC(=O)OCC(OCCCCCC)OCCCCCC)OC(=O)OCCCN(CC)CC)OCCCCCCCC (stereo not drawn) [compound 458] | 1.29E+08 | 2.69E+07 | 2.60E+06
CCCCCCOC(CCCNC(=O)OCCCCCCCC(CCCCCCCCCOC(=O)NCC(OCCCCCC)OCCCCCC)OC(=O)OCCCN(CC)CC)OCCCCCC (stereo not drawn) [compound 459] | 3.42E+07 | 5.09E+06 | 2.52E+06
CCCCCCCOC(CCCOC(=O)CCCCCCCCC(CCCCCCCCC(=O)OCCCC(OCCCCCCC)OCCCCCCC)OC(=O)OCCCN(C)C)OCCCCCCC [compound 490] | 2.65E+07 | 3.68E+06 | 5.06E+05
CCCCCCCCCOC(CCCOC(=O)CCCCCCCCC(CCCCCCCCC(=O)OCCCC(OCCCCCCCCC)OCCCCCCCCC)OC(=O)OCCCN(C)C)OCCCCCCCCC [compound 849] | 2.67E+07 | 4.12E+06 | 1.82E+05
CCCCCCCOC(CCCOC(=O)CCCCCCCCC(CCCCCCCCC(=O)OCCCC(OCCCCC)OCCCCC)OC(=O)OCCCN(C)C)OCCCCCCC (stereo not drawn) [compound 851] | 1.28E+08 | 2.21E+07 | 1.93E+06
CCCCCCCCCOC(CCCOC(=O)CCCCCCCCC(CCCCCCCCC(=O)OCCCC(OCCCCCC)OCCCCCC)OC(=O)OCCCN(C)C)OCCCCCCCCC (stereo not drawn) [compound 856] | 3.40E+07 | 9.34E+06 | 3.58E+05
CCCCCCCCOC(CCCOC(=O)CCCCCCCCC(CCCCCCCCC(=O)OCCCC(OCCCCCCCC)OCCCCCCCC)OC(=O)OCCCN(CC)CC)OCCCCCCCC [compound 859] | 2.31E+07 | 3.71E+06 | 7.21E+04
CCCCCCOC(CCCOC(=O)CCCCCCCCC(CCCCCCCCC(=O)OCCCC(OCCCCC)OCCCCC)OC(=O)OCCCN(CC)CC)OCCCCCC (stereo not drawn) [compound 861] | 6.67E+07 | 1.17E+07 | 3.52E+05
CCCCCCCOC(CCCOC(=O)CCCCCCCCC(CCCCCCCCC(=O)OCCCC(OCCCCC)OCCCCC)OC(=O)OCCCN(CC)CC)OCCCCCCC (stereo not drawn) [compound 862] | 8.57E+07 | 1.53E+07 | 6.67E+05
CCCCCCCCOC(CCCOC(=O)CCCCCCCCC(CCCCCCCCC(=O)OCCCC(OCCCCC)OCCCCC)OC(=O)OCCCN(CC)CC)OCCCCCCCC (stereo not drawn) [compound 863] | 4.43E+07 | 7.13E+06 | 2.88E+05
CCCCCCCCCOC(CCCOC(=O)CCCCCCCCC(CCCCCCCCC(=O)OCCCC(OCCCCC)OCCCCC)OC(=O)OCCCN(CC)CC)OCCCCCCCCC (stereo not drawn) [compound 864] | 3.66E+07 | 6.58E+06 | 2.33E+05
CCCCCCCOC(CCCOC(=O)CCCCCCCCC(CCCCCCCCC(=O)OCCCC(OCCCCCC)OCCCCCC)OC(=O)OCCCN(CC)CC)OCCCCCCC (stereo not drawn) [compound 865] | 4.34E+07 | 8.60E+06 | 3.25E+05
